Experimental data from patent US8129401B2, “Heterocyclic compounds useful for the treatment of inflammatory and allergic disorders: process for their preparation and pharmaceutical compositions containing them” (Glenmark Pharmaceuticals S.A., priority 2004, dated 2012).
Where a name gives a salt, the structure may show the parent alone.

What follows are compounds tested on PDE4 enzyme (assay: Inhibition of phosphodiesterase enzymes (PDE4), [3H]cAMP hydrolysis assay). Conditions: PDE4 inhibition at 1 μM compound.
Assay type: biochemical

First: COc1ccc(C(=O)Nc2c(Cl)cncc2Cl)c2c3c(sc12)CNCC3 [Example 08, N5 (3,5-dichloro-4-pyridyl)-8-methoxy-1,2,3,4-tetrahydrobenzo[4,5]thieno[2,3-c]pyridine-5-carboxamide hydrochloride]
Second: COc1ccc(C(=O)Nc2c(Cl)cncc2Cl)c2c3c(n(C)c12)CCN(C(=O)OC(C)(C)C)C3 [Example 10, tert-butyl 9-(3,5-dichloro-4-pyridylcarbamoyl)-6-methoxy-5-methyl-1,3,4,5-tetrahydro-1H-pyrido[4,3-b]indole-2-carboxylate]
The “percent inhibition at 1 μM” value of the first is higher: 31.75% at 1 μM for the first, 27.74% at 1 μM for the second.

Going from `COc1ccc(C(=O)Nc2c(Cl)cncc2Cl)c2c3c(n(CC4CC4)c12)CCN(C(=O)OC(C)(C)C)C3` [Example 12, tert-butyl 9-(3,5-dichloro-4-pyridylcarbamoyl)-6-methoxy-5-cyclopropylmethyl-1,3,4,5-tetrahydro-1H-pyrido[4,3-b]indole-2-carboxylate] to `COc1ccc(C(=O)Nc2c(Cl)cncc2Cl)c2c3c(n(C)c12)CCN(C)C3` [Example 15, N9-(3,5-dichloro-4-pyridylcarbamoyl)-6-methoxy-2,5-methyl-1,3,4,5-tetrahydro-1H-pyrido[4,3-b]indole], the “percent inhibition at 1 μM” value falls from 48.79% at 1 μM to 12.90% at 1 μM.

Going from `COc1ccc(C(=O)Nc2ccncc2)c2c3c(n(C)c12)CCN(C(=O)OC(C)(C)C)C3` [Example 17, tert-butyl 9-(4-pyridinylcarbamoyl)-6-methoxy-5-methyl-1,3,4,5-tetrahydro-1H-pyrido[4,3-b]indole-2-carboxylate] to `COc1ccc(C(=O)Nc2c(Cl)cncc2Cl)c2c3c(n(C)c12)C(=O)N(C)CC3` [Example 22, N-(3,5-dichloropyridin-4-yl)-2,9-dimethyl-8-methoxy-1-oxo-1,2,3,4-tetrahydro-β-carboline-5-carboxamide], the “percent inhibition at 1 μM” value rises from 33.67% at 1 μM to 34.54% at 1 μM.

For “N9-(3,5-dichloro-4-pyridylcarbamoyl)-6-methoxy-5-methyl-1,3,4,5-tetrahydro-1H-pyrido[4,3-b]indole hydrochloride [Example 13]”, the “percent inhibition at 1 μM” value was 20.99% at 1 μM.

Same assay, conditions: PDE4 inhibition, 1 μM cAMP, 34° C.

Compared with `COc1ccc(C(=O)Nc2c(Cl)cncc2Cl)c2c1oc1cnncc12` [Example 01, N9-(3,5-dichloro-4-pyridyl)-6-methoxybenzo[4,5]furo[2,3-d]pyridazine-9-carboxamide], `O=C(Nc1c(Cl)cncc1Cl)c1ccc(OC(F)F)c2oc3cnncc3c12` [Example 04, N9-(3,5-dichloro-4-pyridyl)-6-difluoromethoxybenzo[4,5]furo[2,3-d]pyridazine-9-carboxamide] is 2.5-fold higher in IC50: 1.38 nM for the first, 3.41 nM for the second. The first is the more potent here.

Going from `COc1ccc(C(=O)Nc2c(Cl)cncc2Cl)c2c1oc1cncnc12` [Example 02, N9-(3,5-dichloro-4-pyridyl)-6-methoxybenzo[4,5]furo[3,2-d]pyrimidine-9-carboxamide] to `COc1ccc(C(=O)Nc2c(Cl)cncc2Cl)c2c1oc1ccncc12` [Example 03, N9-(3,5-dichloro-4-pyridyl)-6-methoxybenzo[4,5]furo[3,2-c]pyridine-9-carboxamide], the IC50 falls from 494 nM to 0.73 nM (680-fold).

First: COc1ccc(C(=O)Nc2c(Cl)cncc2Cl)c2c3c(sc12)CN(C(=O)OC(C)(C)C)CC3 [Example 07, tert-butyl 5-(3,5-dichloro-4-pyridylcarbamoyl)-8-methoxy-1,2,3,4-tetrahydrobenzo[4,5]thieno[2,3-c]pyridine-2-carboxylate]
Second: COc1ccc(C(=O)Nc2c(Cl)cncc2Cl)c2c3c(n(Cc4ccccc4)c12)CCN(C(=O)OC(C)(C)C)C3 [Example 11, tert-butyl 9-(3,5-dichloro-4-pyridylcarbamoyl)-6-methoxy-5-benzyl-1,3,4,5-tetrahydro-1H-pyrido[4,3-b]indole-2-carboxylate]
The IC50 of the first is 2.4-fold higher: 416 nM for the first, 177 nM for the second.

Compared with `COc1ccc(C(=O)Nc2c(Cl)cncc2Cl)c2c3c(n(Cc4ccccc4)c12)CCNC3` [Example 14, N9-(3,5-dichloro-4-pyridylcarbamoyl)-6-methoxy-5-benzyl-1,3,4,5-tetrahydro-1H-pyrido[4,3-b]indole hydrochloride], `COc1ccc(C(=O)Nc2c(Cl)cncc2Cl)c2c3c(n(Cc4ccccc4)c12)CCN(C)C3` [Example 16, N9-(3,5-dichloro-4-pyridylcarbamoyl)-6-methoxy-2-methyl-5-benzyl-1,3,4,5-tetrahydro-1H-pyrido[4,3-b]indole] is 1.5-fold lower in IC50: 3530 nM for the first, 2280 nM for the second.

Going from `CCOC(=O)N1CCc2c(oc3c(OC)ccc(C(=O)Nc4c(Cl)cncc4Cl)c23)C1` [Example 19, N-(3,5-dichloropyridin-4-yl)-2-(ethoxycarbonyl)-8-methoxy-1,2,3,4-tetrahydro[1]benzofuro[2,3-c]pyridine-5-carboxamide] to `COc1ccc(C(=O)Nc2c(Cl)cncc2Cl)c2c3c(oc12)CNCC3` [Example 20, N-(3,5-dichloropyridin-4-yl)-8-methoxy-1,2,3,4-tetrahydro[1]benzofuro[2,3-c]pyridine-5-carboxamide hydrochloride], the IC50 rises from 7.53 nM to 17.4 nM (2.3-fold). The first is the more potent here.

First: COc1ccc(C(=O)Nc2c(Cl)cncc2Cl)c2c3c(oc12)CCNC3 [Example 21, N-(3,5-dichloropyridin-4-yl)-6-methoxy-1,2,3,4-tetrahydro[1]benzofuro[3,2-c]pyridine-9-carboxamide hydrochloride]
Second: O=C(Nc1c(Cl)cncc1Cl)c1ccc(OC(F)F)c2oc3ccncc3c12 [Example 23, N9-(3,5-dichloro-4-pyridyl)-6-difluoromethoxybenzo[4,5]furo[3,2-c]pyridine-9-carboxamide]
The IC50 of the first is 82-fold higher: 20.4 nM for the first, 0.25 nM for the second.

`O=C(Nc1c(Cl)c[n+]([O-])cc1Cl)c1ccc(OC(F)F)c2oc3cnncc3c12` [Example 25, 3,5-dichloro-4-(6-difluoromethoxybenzo[4,5]furo[2,3-d]pyridazine-9-ylcarboxamido)-1-pyridiniumolate] and `O=C(Nc1c(Cl)c[n+]([O-])cc1Cl)c1ccc(OC(F)F)c2oc3ccncc3c12` [Example 26, 3,5-dichloro-4-(6-difluoromethoxybenzo[4,5]furo[3,2-c]pyridin-9-ylcarboxamido)-1-pyridiniumolate] are within 1.5-fold of each other in IC50: 3.99 nM for the first, 2.69 nM for the second.

For `O=C(Nc1c(Cl)c[n+]([O-])cc1Cl)c1ccc(OC(F)F)c2oc3ccncc3c12` [Example 27, 3,5-dichloro-4-(6-difluoromethoxybenzo[4,5]furo[3,2-c]pyridin-9-ylcarboxamido)-1-pyridiniumolate sodium], the IC50 was 2.42 nM.

Same assay, conditions: PDE4 inhibition, 1 μM cAMP, 34° C.; sodium

In the case of `O=C(Nc1c(Cl)cncc1Cl)c1ccc(OC(F)F)c2oc3ccncc3c12` [Example 24, N9-(3,5-dichloro-4-pyridyl)-6-difluoromethoxybenzo[4,5]furo[3,2-c]pyridine-9-carboxamide sodium], the IC50 is reported as 0.02 nM.

Same assay, conditions: PDE4 inhibition, 1 μM cAMP, 34° C.; sodium salt

`O=C(Nc1c(Cl)cncc1Cl)c1ccc(OC(F)F)c2oc3cnncc3c12` [Example 05, N9-(3,5-dichloro-4-pyridyl)-6-difluoromethoxybenzo[4,5]furo[2,3-d]pyridazine-9-carboxamide sodium salt] and `COc1ccc(C(=O)Nc2c(Cl)cncc2Cl)c2c1oc1cnncc12` [Example 18, N9-(3,5-dichloro-4-pyridyl)-6-methoxybenzo[4,5]furo[2,3-d]pyridazine-9-carboxamide sodium salt] are within 1.5-fold of each other in IC50: 4.15 nM for the first, 4.08 nM for the second.
